From EP4596561A1, “PHOSPHORUS-CONTAINING COMPOUND, PHARMACEUTICAL COMPOSITION AND USE THEREOF” (Suzhou Genhouse Bio Co., Ltd., priority 2022, dated 2024)
pIC50: −log10 of the molar value. Like-named read-outs stand apart in the source and are kept apart here.

Tests used:
[1] = Pharmacokinetic test in mice (low dose); assay type: in vivo, Balb/c mice; details: mouse, in vivo
Protocol: The compounds of the present disclosure were administered to Balb/c mice by single intravenous injection and oral gavage, and the plasma of the mice at each time point was collected. The concentration of the compounds to be tested in BALB/C plasma was detected using the LC-MS/MS analysis method, and pharmacokinetic analysis was performed.
The mixture was vortexed, shaken, and ultrasonicated. The remaining volume of 25% sulfobutylether-β-cyclodextrin (sterilized) was added to prepare the final concentration solution or suspension.
Intravenous injection formulations will be directly administered in animal experiments without filtration. The IV drug preparation vials were disinfected in an infrared sterilization cabinet one day in advance.
Intravenous injection: Administration was performed via the tail vein. After the needle was inserted, the syringe was slowly […].
Gavage: Gavage needle and syringe of an appropriate type were selected. The gavage needle was inserted from the root of the tongue into the esophagus until it reached near the cardia of the stomach, then the drug formulation was injected, and the gavage needle was withdrawn. When disposable plastic gavage needles were used, one needle was used for each group.
At each time point, 60 µL of whole blood was collected from the submandibular vein or tail vein (except for the IV group). The blood sample was added to a pre-cooled anticoagulant blood collection tube containing anticoagulant EDTA-K2 (1 µL, 15% EDTA-K2 solution), placed on wet ice, and centrifuged (3000 g, 4 °C, 10 min) within 1 h. The plasma was immediately collected after centrifugation, transferred to an EP tube, and stored at -90 °C to -60 °C.
Plasma concentration detection: A developed LC-MS/MS method was used to detect the compounds in plasma.
The plasma concentration-time data were analyzed using a non-compartmental model in the Phoenix® WinNonlin® (Version 8.2, Pharsight, Mountain View, CA).

in vivo = details: mouse, plasma, po, 200 mg/kg
Protocol: After adding 5% DMSO, the mixture was vortexed. 15% HS15 was then added, and the mixture was vortexed again. Finally, a 10% aqueous cyclodextrin solution was added, and the resulting mixture was vortexed to prepare the final concentration solution or suspension.

[2] = Saturated solubility in FaSSIF solution; assay type: physicochemical; details: room temperature, stirred overnight
Protocol: Efficacy Experimental Example 9: Test of Saturated Solubility of Samples in FaSSIF Solution
About 0.21 g of sodium hydroxide, about 2.24 g of sodium dihydrogen phosphate dihydrate, and 3.09 g of sodium chloride were weighed out and dissolved in 500 mL of water, and after dissolution, the pH was adjusted to 6.5 with 1 N sodium hydroxide or 1 N hydrochloric acid.
112 mg of FaSSIF solid was weighed out and placed in a 50 mL volumetric flask, and the buffer described above was added for dissolution. The resulting solution was diluted to volume, mixed well, and left to stand at room temperature for 2 h or more.
Test sample: About 1 mg of the test sample was taken, and 1 mL of FaSSIF solution was added. The mixture was stirred at room temperature overnight and centrifuged, and the supernatant was collected and injected for analysis.
Reference sample solution: About 1.5 mg of the test sample was precisely weighed out and placed in a 50 mL volumetric flask, and DMF was added for dissolution. The resulting solution was diluted to volume and mixed well.
The peak of the main component of the reference sample and the peak of the test sample with the same retention time were integrated, and the concentration thereof in the FaSSIF solution was calculated according to the external standard method.

[3] = tested on: YAP-TEAD transcription complex; experiment: YAP-TEAD reporter gene assay (dual luciferase, stably transfected 293T cells); assay type: cell-based; details: Homo sapiens, HEK-293T
Protocol: YAP-TEAD reporter gene The YAP-TEAD reporter gene assay was performed as follows. Firstly, the 8xGTIIC promoter sequence ([…] GTACTGTTGGTAAA) was constructed into a pGL4.20(luc2-Puro) plasmid, and the TK promoter ([…]) unrelated to the hippo pathway was constructed into a pGL4.78(hRlucCP/Hygro) plasmid, thereby constructing stably transfected 293T cells that can stably and continuously express the transcriptional activity of the YAP-TEAD transcription complex. After selection and identification of individual clones, the clones were grown and maintained in a DMEM medium containing 10% fetal bovine serum, penicillin-streptomycin solution, 1 µg/mL puromycin, and 150 µg/mL hygromycin. To perform reporter gene assays with the compounds to be tested, the well-growing cells described above were plated in a 384-well plate at a cell density of 3000 cells per well, with 90 µL per well. The periphery was sealed with an appropriate amount of PBS to prevent evaporation of water from the peripheral wells. Administration was performed on the next day after the cell plating. The test compounds were added at different concentration gradients, and three replicate wells were set for each concentration point. The compound concentration started at 5 µM and was diluted seven times with a 5-fold gradient. A corresponding negative control group treated with DMSO was also set up. After 24 h of drug treatment, the detection reagents were prepared first. The Dual-Lumi™ Firefly luciferase detection reagent and Dual-Lumi™ Renilla luciferase detection buffer were dissolved and brought to room temperature. […]. According to the amount of 100 µL of Dual-Lumi™ Renilla luciferase detection working solution required for the detection of each sample, an appropriate amount of Dual-Lumi™ Renilla luciferase detection working solution was prepared. […]. The cell culture plate was taken out and allowed to equilibrate at room temperature for 10 min (usually no more than 30 min). Then, 100 µL of Dual-Lumi™ Firefly luciferase detection reagent was added to each well of a 96-well plate (25 µL per well for the 384-well plate), and the mixture was mixed well. The mixture was then incubated at room temperature (about 25 °C) for 10 min to stabilize the luminescent signal, and then chemiluminescence was detected using a multimode microplate reader with a chemiluminescence detection function. Subsequently, the detection of Renilla luciferase began. Firstly, 100 µL of Dual-Lumi™ Renilla luciferase detection working solution was added to each well of a […] (25 µL per well for the 384-well plate), and the mixture was mixed well. The mixture was then incubated at room temperature (about 25 °C) for 10 min to stabilize the luminescent signal. Finally, chemiluminescence was detected using a multimode microplate reader with a chemiluminescence detection function. The obtained data were analyzed using GraphPad Prism 7.0 software. A sigmoidal dose-survival rate curve was plotted using a non-linear regression model, and the IC50 values were calculated.

NCI-H28 (NF2 wide-type) = experiment: Inhibition of cell proliferation (CellTiter-Lumi); assay type: cell-based; details: Homo sapiens, 72 h + another 72 h treatment
Protocol: (§1) NCI-H2052 (NF2 mutant), NCI-H226 (NF2 mutant), NCI-H2452 (NF2 wide-type), NCI-H28 (NF2 wide-type), and MSTO-211H (NF2 wide-type) cells were cultured in RPMI 1640 complete media.
(§2) The normally growing cells described above were digested with a trypsin cell-digesting solution, centrifuged, counted, and then plated in a 96-well plate at a density of 1000 cells per well. Administration was performed 24 h after the cell plating. Inhibitors at different concentration gradients were added at 10 µL per well, and three replicate wells were set for each concentration point. The starting concentration was 20 µM and diluted 8 times with a 4-fold gradient. A corresponding negative control group treated with 0.1% DMSO was also set up. After 72 h of drug treatment, the cell culture plate to be tested was taken out of the incubator. The culture medium in the 96-well plate was pipetted, and 190 µL of fresh RPMI 1640 complete medium was added. Another administration was performed, and the cells were cultured for another 72 h. The 96-well plate was taken out and allowed to equilibrate at room temperature for 10 min. […] After shaking for two minutes, the mixture was reacted at room temperature for 10 min. Then, 150 µL of liquid was pipetted from the transparent 96-well plate and transferred to a white 96-well plate for chemiluminescence reading. The background value was subtracted from the value for each well to calculate the cell survival rate. Survival rate (%) = […]. Sample is the chemiluminescence of the drug-treated group, and Vehicle is the […] of the DMSO control group. A sigmoidal dose-survival rate curve was plotted using a non-linear regression model in the GraphPad Prism 7.0 software, and the IC50 values or GI50 values were calculated.

[4] = tested on: NCI-H2452 (NF2 wide-type); experiment: Inhibition of cell proliferation (CellTiter-Lumi); assay type: cell-based; details: Homo sapiens, 72 h + another 72 h treatment
Protocol: as §1, §2

CC(C)NC(=O)c1ccc2c(Oc3ccc(C(F)(F)F)cc3)cccc2c1 [Comparative compound B1, reference compound]
bioavailability ([1]; Balb/c): 81% | AUC(0-t) ([1]; Balb/c, iv, 2 mg/kg): 1.24 µM·h | clearance ([1]; Balb/c, iv, 2 mg/kg): 70.8 mL/min/kg | half-life ([1]; Balb/c, iv, 2 mg/kg): 1.4 h | AUC(0-t) ([1]; Balb/c, po, 10 mg/kg): 4.87 µM·h | Cmax ([1]; Balb/c, po, 10 mg/kg): 0.653 µM | half-life ([1]; Balb/c, po, 10 mg/kg): 5.6 h

CNS(=O)(=O)c1ccc2c(Oc3ccc(C(F)(F)F)cc3)cccc2c1 [Comparative compound B2, reference compound]
AUC(0-t) (in vivo): 902 µM·h | FaSSIF(pH = 6.5) [2]: 16.4 ug/mL | bioavailability ([1]; Balb/c): 87.5% | AUC(0-t) ([1]; Balb/c, iv, 2 mg/kg): 8.75 µM·h | clearance ([1]; Balb/c, iv, 2 mg/kg): 6.03 mL/min/kg | half-life ([1]; Balb/c, iv, 2 mg/kg): 19.6 h | AUC(0-t) ([1]; Balb/c, po, 10 mg/kg): 52.8 µM·h | Cmax ([1]; Balb/c, po, 10 mg/kg): 4.21 µM | half-life ([1]; Balb/c, po, 10 mg/kg): 9.3 h

CNS(=O)(=O)c1ccc(Nc2ccc(C(F)(F)F)cc2)c(-c2cn(C)cn2)c1 [Comparative compound B3, reference compound]
AUC(0-t) (in vivo): 1040 µM·h | FaSSIF(pH = 6.5) [2]: 14.0 ug/mL

CNS(=O)(=O)c1cnc(Oc2ccc(C(F)(F)F)cc2)c(-c2cn3c(n2)CCC3)c1 [Comparative compound B4, reference compound]
FaSSIF(pH = 6.5) [2]: 36.2 ug/mL

CP(C)(=O)c1cnc(Oc2ccc(C(F)(F)F)cc2)c(-c2cn3c(n2)CCC3)c1 [Example 9]
pIC50 ([3]; 24 h): 6.80 | MRT ([1]; mice, IV 2 mg/kg): 1.7 h | AUC(0-t) ([1]; mice, IV 2 mg/kg, read-out: AUClast): 5.74 µM·h | clearance ([1]; mice, IV 2 mg/kg, read-out: Cl (converted)): 13.3 mL/min/kg | half-life ([1]; mice, IV 2 mg/kg, read-out: T1/2 (converted)): 1.4 h | MRT ([1]; mice, PO 10 mg/kg): 3.2 h | bioavailability ([1]; mice, PO 10 mg/kg vs IV 2 mg/kg, read-out: F%): 111% | AUC(0-t) ([1]; mice, PO 10 mg/kg, read-out: AUClast): 30.5 µM·h | Cmax ([1]; mice, PO 10 mg/kg, read-out: Cmax): 9.37 µM | half-life ([1]; mice, PO 10 mg/kg, read-out: T1/2 (converted)): 1.9 h

Cn1ccc(-c2cc(P(C)(C)=O)cnc2Nc2ccc(C(F)(F)F)cc2)n1 [Example 17]
pIC50 (NCI-H28 (NF2 wide-type)): 6.02 | pIC50 [4]: < 5.90 | pIC50 ([3]; 293T reporter cells, 24 h of drug treatment, read-out: IC50): 7.93

CP(C)(=O)c1ccc(Nc2ccc(C(F)(F)F)cc2)c(-c2cn3c(n2)CCC3)c1 [Example 21]
pIC50 ([3]; 24 h): 8.13

Cn1cnc(-c2cc(P3(=O)CCOCC3)ccc2Nc2ccc(C(F)(F)F)cc2)c1 [Example 23]
pIC50 ([3]; 24 h): 7.56

CCc1ccc(Oc2cccc3cc(P(C)(C)=O)ccc23)cc1 [Example 25]
pIC50 (NCI-H28 (NF2 wide-type)): < 4.70 | pIC50 [4]: < 4.70

CP(C)(=O)c1ccc2c(Oc3ccc(C4CC4)cc3)cccc2c1 [Example 26]
pIC50 (NCI-H28 (NF2 wide-type)): < 5.30 | pIC50 [4]: < 5.30

CP(C)(=O)c1ccc2c(Oc3ccc(OC(F)(F)F)cc3)cccc2c1 [Example 27]
pIC50 (NCI-H28 (NF2 wide-type)): < 5.30 | pIC50 [4]: < 4.70
